This is an account of results in EP1056700B1, “MEDICINAL USES OF PHENYLALKANOLS AND DERIVATES” (ZingoTX Pty Ltd, priority 1997, dated 1999).

SMILES strings stand for the structures. Values joined by “and” are separate entries in the source; they are usually repeats but may differ in a detail not shown here. Equal values may be shown once. Some results are limits rather than exact numbers.

The first data set has as its target T1, Lipoxygenase (LP) (Rattus norvegicus, UniProt P12527).
T1 construct: cell-free enzyme (Wong et al, 1991) prepared from rat basophilic leukemia (RBL) 2H3 cell lines; endogenous in cells; host or cells: RBL 2H3 (rat basophilic leukemia), 15,000 g supernatant of cells disrupted by nitrogen cavitation
T1 sequence (P12527 1-673): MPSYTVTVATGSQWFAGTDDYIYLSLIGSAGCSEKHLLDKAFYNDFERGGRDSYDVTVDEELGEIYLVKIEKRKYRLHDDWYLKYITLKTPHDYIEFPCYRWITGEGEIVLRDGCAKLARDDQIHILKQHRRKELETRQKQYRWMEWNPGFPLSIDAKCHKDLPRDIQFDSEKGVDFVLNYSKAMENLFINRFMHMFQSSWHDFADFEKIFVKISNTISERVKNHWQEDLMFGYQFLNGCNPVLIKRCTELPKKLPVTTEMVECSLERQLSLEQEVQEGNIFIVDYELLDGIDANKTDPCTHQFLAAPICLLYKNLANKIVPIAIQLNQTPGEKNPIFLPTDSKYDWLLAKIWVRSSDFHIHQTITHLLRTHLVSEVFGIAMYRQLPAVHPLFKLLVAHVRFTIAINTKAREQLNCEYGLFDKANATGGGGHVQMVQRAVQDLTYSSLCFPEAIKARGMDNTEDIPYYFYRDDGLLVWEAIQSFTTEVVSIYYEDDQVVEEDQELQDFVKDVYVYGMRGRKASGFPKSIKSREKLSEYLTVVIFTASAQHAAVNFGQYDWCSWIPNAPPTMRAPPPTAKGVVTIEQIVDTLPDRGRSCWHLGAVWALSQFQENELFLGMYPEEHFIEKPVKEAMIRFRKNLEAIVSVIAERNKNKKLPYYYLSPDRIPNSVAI
Nature of the data set: Lipoxygenase assay with cell-free enzyme from RBL 2H3 cells (EIA). The data set is classed as biochemical. As to conditions: final concentration of 10 µM. Put shortly: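 Cell-free enzyme from the 15,000 g supernatant of nitrogen-cavitated RBL 2H3 cells, preincubated 5 min with compound at 10 µM final (1.5% DMSO) in Hepes pH 7. Reaction started with CaCl2, ATP, PAF and arachidonic acid and run 8 min at room temperature; product quantified by EIA.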
As for `CCCCCCCCCC(O)CCc1ccc(O)c(OC)c1` (centres unmarked) [1-(4-hydroxy-3-methoxyphenyl)dodecan-3-ol], the activity at 10 µM stood at 31%.

As for `CCCCCCCC(O)CCCCc1ccc(O)c(OC)c1` (centres unmarked) [1-(4-hydroxy-3-methoxyphenyl)dodecan-5-ol], the activity at 10 µM turned out to be 35%.

Take `CCCCCCCC(O)CC(=O)c1ccc(O)c(OC)c1` (centres unmarked) [3-hydroxy-1-(4-hydroxy-3-methoxyphenyl)decan-1-one]: the activity at 10 µM turned out to be 175%.

As for `CCCCCCCC(=O)CC(O)CCc1ccc(O)c(OC)c1` (centres unmarked) [3-hydroxy-1-(4-hydroxy-3-methoxyphenyl)dodecan-5-one], the activity at 10 µM came to 193%.

Regarding `CCCCCCCC(O)CC(=O)CCc1ccc2c(c1)OCO2` (centres unmarked) [5-hydroxy-1-(3,4-methylenedioxyphenyl)dodecan-3-one], the activity at 10 µM is 107%.

As for `CCCCCC(O)CC(=O)CCc1ccc(O)c(OC)c1` (centres unmarked) [[6]-gingerol, 5-hydroxy-1-(4-hydroxy-3-methoxyphenyl)decan-3-one, reference compound], the activity at 10 µM came to 202%.

With `CCCCCCCC(O)CC(=O)C=Cc1ccc(O)c(OC)c1` (centres unmarked) [[8]-dehydrogingerol, 5-hydroxy-1-(4-hydroxy-3-methoxyphenyl)dodecan-1-ene-3-one, reference compound], the activity at 10 µM was 37%.

On to `CCCCCCCC(O)CC(=O)CCc1ccc(O)cc1` (centres unmarked) [[8]-demethoxygingerol, 5-hydroxy-1-(4-hydroxyphenyl)dodecan-3-one], for which the activity at 10 µM is 450%.

On to `CCCCCCCC(O)CC(O)CCc1ccc(O)c(OC)c1` (centres unmarked) [[8]-gingerdiol, 1-(4-hydroxy-3-methoxyphenyl)dodecane-3,5-diol, reference compound], for which the activity at 10 µM amounted to 26%.

As to `CCCCCCCC(O)CC(=O)CCc1ccc(O)c(OC)c1` (centres unmarked) [[8]-gingerol, 5-hydroxy-1-(4-hydroxy-3-methoxyphenyl)dodecan-3-one, reference compound], the activity at 10 µM turned out to be 65.5%.

With `CCCCCCCC(O)CC(=O)CCc1ccc(OC)c(O)c1` (centres unmarked) [[8]-isogingerol, 5-hydroxy-1-(3-hydroxy-4-methoxyphenyl)dodecan-3-one, reference compound], the activity at 10 µM is 8%.

As to `CCCCCCCC(O)CC(=O)CCc1cccc(OC)c1O` (centres unmarked) [[8]-orthogingerol, 5-hydroxy-1-(2-hydroxy-3-methoxyphenyl)dodecan-3-one], the activity at 10 µM was found to be 118%.

In another data set the test system is Cyclo-oxygenase (COX). Nature of the data set: Cyclo-oxygenase assay in RBL 2H3 cells (PGD2 EIA). The format is cell-based, rat. Particulars: final concentration of 10 µM. On the procedure: Cyclo-oxygenase (COX) assay was performed with cells in culture prepared from rat basophilic leukemia (RBL) 2H3 cell lines. Cells were cultured in EMEM containing 10% fetal calf serum and antibiotic until cells reached confluence. Harvested cells were subsequently seeded on 24-well plates at 1 x 10^6 cells/ml then incubated at 37°C for 3 hours. Cells were washed twice with incubation buffer (1.5 ml) containing 5 mM Hepes, 140 mM NaCl, 5 mM KCl, 0.6 mM MgCl2, 1 mM CaCl2 and […]. Cells were then covered with 0.49 ml of buffer, followed by addition of samples/solvents (0.005 ml) and incubated at 37 °C for 5 min on an orbital shaker. Arachidonic acid (0.005 ml, containing 50% EtOH) was subsequently added, and the plate was incubated at similar conditions for a further 10 min. The supernatant (0.1 ml) was aliquoted for methoxime derivatisation of PGD2, which was carried out by heating the supernatant with methoxime solution (1:1) at 60 °C for 30 min according to the instructions provided with the kit. The resultant solution was diluted with EIA buffer and stored on ice for EIA, following the protocol provided with the kit.
Validation of COX enzyme activity was carried out using EIA in which the enzyme activity was characterised against various concentrations of AA and a time course of enzyme activity.
[…] Indomethacin was used as reference compound. The concentration of DMSO in the assay was maintained at 1.5%.
Regarding `CCCCCCCCCC(O)CCc1ccc(O)c(OC)c1` (centres unmarked) [1-(4-hydroxy-3-methoxyphenyl)dodecan-3-ol], the “Cyclooxygenase activity % activity” value is 9%.

`CCCCCCCC(O)CCCCc1ccc(O)c(OC)c1` (centres unmarked) [1-(4-hydroxy-3-methoxyphenyl)dodecan-5-ol]: the “Cyclooxygenase activity % activity” value was determined as 12%.

Turning to `CCCCCCCC(O)CC(=O)c1ccc(O)c(OC)c1` (centres unmarked) [3-hydroxy-1-(4-hydroxy-3-methoxyphenyl)decan-1-one], the “Cyclooxygenase activity % activity” value is on record as 123%.

Take `CCCCCCCC(=O)CC(O)CCc1ccc(O)c(OC)c1` (centres unmarked) [3-hydroxy-1-(4-hydroxy-3-methoxyphenyl)dodecan-5-one]: the “Cyclooxygenase activity % activity” value is reported as 18%.

Regarding `CCCCCCCC(O)CC(=O)CCc1ccc2c(c1)OCO2` (centres unmarked) [5-hydroxy-1-(3,4-methylenedioxyphenyl)dodecan-3-one], the “Cyclooxygenase activity % activity” value was 59%.

Turning to `CCCCCC(O)CC(=O)CCc1ccc(O)c(OC)c1` (centres unmarked) [[6]-gingerol, 5-hydroxy-1-(4-hydroxy-3-methoxyphenyl)decan-3-one, reference compound], the “Cyclooxygenase activity % activity” value came to 55%.

Consider `CCCCCCCC(O)CC(=O)C=Cc1ccc(O)c(OC)c1` (centres unmarked) [[8]-dehydrogingerol, 5-hydroxy-1-(4-hydroxy-3-methoxyphenyl)dodecan-1-ene-3-one, reference compound], for which the “Cyclooxygenase activity % activity” value was 19%.

For the compound `CCCCCCCC(O)CC(=O)CCc1ccc(O)cc1` (centres unmarked) [[8]-demethoxygingerol, 5-hydroxy-1-(4-hydroxyphenyl)dodecan-3-one], the “Cyclooxygenase activity % activity” value turned out to be 63%.

As to `CCCCCCCC(O)CC(O)CCc1ccc(O)c(OC)c1` (centres unmarked) [[8]-gingerdiol, 1-(4-hydroxy-3-methoxyphenyl)dodecane-3,5-diol, reference compound], the “Cyclooxygenase activity % activity” value is listed as 10%.

For the compound `CCCCCCCC(O)CC(=O)CCc1ccc(O)c(OC)c1` (centres unmarked) [[8]-gingerol, 5-hydroxy-1-(4-hydroxy-3-methoxyphenyl)dodecan-3-one, reference compound], the “Cyclooxygenase activity % activity” value is on record as 16%.

As to `CCCCCCCC(O)CC(=O)CCc1ccc(OC)c(O)c1` (centres unmarked) [[8]-isogingerol, 5-hydroxy-1-(3-hydroxy-4-methoxyphenyl)dodecan-3-one, reference compound], the “Cyclooxygenase activity % activity” value was determined as 23%.

Turning to `CCCCCCCC(O)CC(=O)CCc1cccc(OC)c1O` (centres unmarked) [[8]-orthogingerol, 5-hydroxy-1-(2-hydroxy-3-methoxyphenyl)dodecan-3-one], the “Cyclooxygenase activity % activity” value is recorded as 17%.

Tested on in a further data set: not listed separately
Nature of the data set: Brine shrimp toxicity bioassay. The data set is classed as in vivo. As to conditions: Artemia salina (brine shrimp), in vivo; 24 hours, 2% DMSO. The source says: The brine shrimp assay procedure determines LC50 values of active compounds. Activities of a broad range of known active compounds are manifested as toxicity to brine shrimp (Artemia salina Leach). There are many applications of the assay including analysis of toxic substances, anaesthetics, morphine-like substances and cocarcinogenicity of phorbol esters.
The method for testing solvent toxicity used was basically that reported by J L McLaughlin in Methods of Plant Biochemistry (1991), vol. 6 (K Hostettman, ed.), Academic Press, London, 1-32. DMSO solutions of the substances to be tested were added directly to the vials containing the brine shrimp. As the concentration of DMSO that we wished to use was higher than the recommended 1% v/v testing of the toxicity of the DMSO was therefore necessary. The concentrations of DMSO tested on the shrimp, along with the results from the assay which was done in duplicate are listed below.
Brine shrimp toxicity was assayed, except for some minor modifications, according to the method of McLaughlin et al as reported in Brine Shrimp: A convenient bioassay for active plant constituents, B N Meyer, N R Ferrigni, J E Putnam, L B Jacobsen, D E Nichols and J L McLaughlin in Planta Medica (1982), 45, 31-34 and Crown gall tumours on potato discs and brine shrimp lethality: Two simple bioassays for higher plant screening and fractionation. J L McLaughlin. Methods of Plant Biochemistry (1991), vol. 6 (K Hostettman, ed.), Academic Press, London, 1-32. Ten shrimp were transferred to each of the vials and the volume adjusted to 4.9 mL. Each dose was performed in triplicate, including the control. In quick succession, the appropriate volume of additional DMSO for each dose, required to achieve a final concentration of 2%, was added before the appropriate volume of test solution. The vials were gently mixed and the time noted. After 24 hours, the number of survivors were counted and % mortality was determined. The test compounds were assayed at concentrations of 100 µM, 25 µM, 5 µM, 1 µM and 0.2 µM (and where appropriate concentrations of 0.04 µM and 0.008 µM).
The brine shrimp were able to survive without food in the vials over the 24 hour period and were therefore not fed.
The dose-response curves were constructed using the Sigmaplot computer program and the LC50 value was calculated from the intersection point of the curve and the 50 % mortality line. The LC50 values were expressed in both µM and µg/mL.
Regarding `CCCCCCCCCC(O)CCc1ccc(O)c(OC)c1` (centres unmarked) [1-(4-hydroxy-3-methoxyphenyl)dodecan-3-ol], the LC50 at 24 h was > 100 µM and > 31 µg/mL.

In the case of `CCCCCCCC(O)CCCCc1ccc(O)c(OC)c1` (centres unmarked) [1-(4-hydroxy-3-methoxyphenyl)dodecan-5-ol], the LC50 at 24 h is 6.6 µM and 2 µg/mL.

Turning to `CCCCCCCC(O)CC(=O)c1ccc(O)c(OC)c1` (centres unmarked) [3-hydroxy-1-(4-hydroxy-3-methoxyphenyl)decan-1-one], the LC50 at 24 h was 66 µM and 19 µg/mL.

On to `CCCCCCCC(=O)CC(O)CCc1ccc(O)c(OC)c1` (centres unmarked) [3-hydroxy-1-(4-hydroxy-3-methoxyphenyl)dodecan-5-one], for which the LC50 at 24 h was 67 µM and 22 µg/mL.

Regarding `CCCCCCCC(O)CC(=O)CCc1ccc2c(c1)OCO2` (centres unmarked) [5-hydroxy-1-(3,4-methylenedioxyphenyl)dodecan-3-one], the LC50 at 24 h is 3 µM and 0.96 µg/mL.

`CCCCCC(O)CC(=O)CCc1ccc(O)c(OC)c1` (centres unmarked) [[6]-gingerol, 5-hydroxy-1-(4-hydroxy-3-methoxyphenyl)decan-3-one, reference compound]: the LC50 at 24 h was > 100 µM and > 29 µg/mL.

In the case of `CCCCCCCC(O)CC(=O)C=Cc1ccc(O)c(OC)c1` (centres unmarked) [[8]-dehydrogingerol, 5-hydroxy-1-(4-hydroxy-3-methoxyphenyl)dodecan-1-ene-3-one, reference compound], the LC50 at 24 h was 41 µM and 13 µg/mL.

On to `CCCCCCCC(O)CC(=O)CCc1ccc(O)cc1` (centres unmarked) [[8]-demethoxygingerol, 5-hydroxy-1-(4-hydroxyphenyl)dodecan-3-one], for which the 50% lethal concentration (LC50) at 24 h is 25 µM and 7.3 µg/mL.

Consider `CCCCCCCC(O)CC(=O)CCc1ccc(O)c(OC)c1` (centres unmarked) [[8]-gingerol, 5-hydroxy-1-(4-hydroxy-3-methoxyphenyl)dodecan-3-one, reference compound], for which the LC50 at 24 h is 64 µM and 21 µg/mL.

With `CCCCCCCC(O)CC(=O)CCc1ccc(OC)c(O)c1` (centres unmarked) [[8]-isogingerol, 5-hydroxy-1-(3-hydroxy-4-methoxyphenyl)dodecan-3-one, reference compound], the LC50 at 24 h was 11 µM and 3.5 µg/mL.

In the case of `CCCCCCCC(O)CC(=O)CCc1cccc(OC)c1O` (centres unmarked) [[8]-orthogingerol, 5-hydroxy-1-(2-hydroxy-3-methoxyphenyl)dodecan-3-one], the LC50 at 24 h was 9.6 µM and 3.1 µg/mL.
